{"source": "paper PMC11562016", "about": "(Structure (London, England : 1993), 2024)", "key": {"α1:βY231A GlyR": {"target": "α1:βY231A GlyR (Homo sapiens, UniProt P23415+P48167, Y253A)"}, "α1F207A:α1-β GlyR": {"target": "α1F207A:α1-β GlyR (Homo sapiens, UniProt P23415+P48167, F235A)"}, "α1sβsg GlyR": {"tested_on": "α1sβsg GlyR", "conditions": "for τdes: desensitization"}, "[1]": {"target": "α1:α1-β-α1 RFYF (α1: α1R65DF207A-βY231A-α1F207A) GlyR (Homo sapiens, UniProt P23415+P48167, F235A/R93D/Y253A)"}, "[2]": {"target": "α1:α1-β-α1 FYF (α1: α1F207A-βY231A-α1F207A) GlyR (Homo sapiens, UniProt P23415+P48167, F235A/Y253A)"}, "[3]": {"target": "human α1β GlyR (α1:β, α1wtβwt) (Homo sapiens, UniProt P23415+P48167)", "conditions": "for τdes: desensitization"}, "α1F207A:β GlyR": {"target": "α1F207A:β GlyR (Homo sapiens, UniProt P23415+P48167, F235A)"}, "[4]": {"tested_on": "α1β GlyR with mutation of a single α-α or α-β site", "conditions": "Supplementary Fig.S4"}, "α1:βR86TY231A GlyR": {"target": "α1:βR86TY231A GlyR (Homo sapiens, UniProt P23415+P48167, R108T/Y253A)"}, "α1F207A:α1-β-α1 GlyR": {"target": "α1F207A:α1-β-α1 GlyR (Homo sapiens, UniProt P23415+P48167, F235A)"}, "[5]": {"conditions": "glycine dose-response, Hill fit"}}, "note": "“And” between values parts separate entries of the source, which are not always exact repeats. Equal entries are not always repeated. Where two headings read alike, the source gives them in different places.", "data": [{"compound": "NCC(=O)O", "note": "[glycine, Glycine]", "values": [{"measurement": "Imax, maximum glycine-induced current amplitude", "setting": "α1:βY231A GlyR", "value": "5.0 ± 0.7", "unit": "nA"}, {"measurement": "nh (Hill coefficent)", "setting": "α1:βY231A GlyR; [5]", "value": "3.1 ± 0.5"}, {"measurement": "Imax, maximum glycine-induced current amplitude", "setting": "α1F207A:α1-β GlyR", "value": "0.2 ± 0.1", "unit": "nA"}, {"measurement": "nh (Hill coefficent)", "setting": "α1F207A:α1-β GlyR; [5]", "value": "1.0 ± 0.6"}, {"measurement": "I des / Imax", "setting": "α1sβsg GlyR; 40 μM glycine", "value": "0.74 ± 0.05"}, {"measurement": "τclose", "setting": "α1sβsg GlyR; 40 μM glycine", "value": "0.4 ± 0.1", "unit": "s"}, {"measurement": "τopen", "setting": "α1sβsg GlyR; 40 μM glycine", "value": "0.9 ± 0.1", "unit": "s"}, {"measurement": "τdes", "setting": "α1sβsg GlyR; 40 μM glycine", "value": "5.4 ± 1.2", "unit": "s"}, {"measurement": "I des / Imax", "setting": "α1sβsg GlyR; 100 μM glycine", "value": "0.38 ± 0.05"}, {"measurement": "τclose", "setting": "α1sβsg GlyR; 100 μM glycine", "value": "0.5 ± 0.1", "unit": "s"}, {"measurement": "τopen", "setting": "α1sβsg GlyR; 100 μM glycine", "value": "0.5 ± 0.1", "unit": "s"}, {"measurement": "τdes", "setting": "α1sβsg GlyR; 100 μM glycine", "value": "7.0 ± 1.3", "unit": "s"}, {"measurement": "I des / Imax", "setting": "α1sβsg GlyR; 1000 μM glycine", "value": "0.17 ± 0.03"}, {"measurement": "τclose", "setting": "α1sβsg GlyR; 1000 μM glycine", "value": "0.9 ± 0.3", "unit": "s"}, {"measurement": "τopen", "setting": "α1sβsg GlyR; 1000 μM glycine", "value": "0.06 ± 0.01", "unit": "s"}, {"measurement": "τdes", "setting": "α1sβsg GlyR; 1000 μM glycine", "value": "8.8 ± 1.8", "unit": "s"}, {"measurement": "EC50", "setting": "α1sβsg GlyR; glycine response normalized to 1 mM glycine", "value": "~100", "unit": "µM"}, {"measurement": "Imax, maximum glycine-induced current amplitude", "setting": "[1]", "value": "0.8 ± 0.3", "unit": "nA"}, {"measurement": "nh (Hill coefficent)", "setting": "[1]; [5]", "value": "1.6 ± 2.0"}, {"measurement": "channel activation by glycine", "setting": "[1]; only 1 intact glycine site", "value": "inactive"}, {"measurement": "Imax, maximum glycine-induced current amplitude", "setting": "[2]", "value": "4.5 ± 0.7", "unit": "nA"}, {"measurement": "nh (Hill coefficent)", "setting": "[2]; [5]", "value": "2.2 ± 0.4"}, {"measurement": "current remaining after desensitization", "setting": "[3]; 40 μM glycine", "value": "~ 66%"}, {"measurement": "τclose", "setting": "[3]; 40 μM glycine", "value": "0.3 ± 0.1", "unit": "s"}, {"measurement": "τopen", "setting": "[3]; 40 μM glycine", "value": "0.6 ± 0.3", "unit": "s"}, {"measurement": "τdes", "setting": "[3]; 40 μM glycine", "value": "4.8 ± 0.9", "unit": "s"}, {"measurement": "τclose", "setting": "[3]; 100 μM glycine", "value": "0.3 ± 0.1", "unit": "s"}, {"measurement": "τopen", "setting": "[3]; 100 μM glycine", "value": "0.18 ± 0.03", "unit": "s"}, {"measurement": "τdes", "setting": "[3]; 100 μM glycine", "value": "7.5 ± 1.2", "unit": "s"}, {"measurement": "τclose", "setting": "[3]; 200 μM glycine", "value": "1.1 ± 0.1", "unit": "s"}, {"measurement": "τopen", "setting": "[3]; 200 μM glycine", "value": "0.07 ± 0.01", "unit": "s"}, {"measurement": "τdes", "setting": "[3]; 200 μM glycine", "value": "7.8 ± 0.6", "unit": "s"}, {"measurement": "current remaining after desensitization", "setting": "[3]; 1 mM glycine", "value": "~ 18%"}, {"measurement": "τclose", "setting": "[3]; 1000 μM glycine", "value": "1.0 ± 0.1", "unit": "s"}, {"measurement": "τopen", "setting": "[3]; 1000 μM glycine", "value": "0.06 ± 0.01", "unit": "s"}, {"measurement": "τdes", "setting": "[3]; 1000 μM glycine", "value": "6.5 ± 0.4", "unit": "s"}, {"measurement": "increase in desensitization recovery time constant", "setting": "[3]; 1 mM vs 40 μM glycine", "value": "~ 7 fold"}, {"measurement": "increase in the extent of desensitization", "setting": "[3]; 1 mM vs 40 μM glycine", "value": "~ 4 fold"}, {"measurement": "current remaining after desensitization (residual activity)", "setting": "[3]; 10 mM glycine", "value": "~ 3%"}, {"measurement": "desensitization time constants", "setting": "[3]; across glycine concentrations 40 μM to 10 mM", "value": "5 to 8", "unit": "s"}, {"measurement": "τclose", "setting": "[3]; beyond 200 μM glycine", "value": "~ 1.1 s"}, {"measurement": "nh (Hill coefficent)", "setting": "[3]; [5]", "value": "2.5 ± 0.4"}, {"measurement": "minimum τopen", "setting": "[3]; increased glycine concentrations, likely limited by instrument", "value": 60, "unit": "ms"}, {"measurement": "Imax, maximum glycine-induced current amplitude", "setting": "[3]; whole-cell, -70 mV", "value": "7.0 ± 0.9", "unit": "nA"}, {"measurement": "desensitization forward rate constant kdes", "setting": "α1β GlyR; model parameter", "value": "0.18 ± 0.05 and 0.18"}, {"measurement": "desensitization reverse rate constant kdes_r", "setting": "α1β GlyR; model parameter", "value": "0.007 ± 0.002 and 0.007"}, {"measurement": "rate scaler after desensitization ndes", "setting": "α1β GlyR; model parameter", "value": "0.006 ± 0.007 and 0.006"}, {"measurement": "dissociation rate constants kdα = kdβ", "setting": "α1β GlyR; model parameter matched to full recording traces", "value": "10 ± 2"}, {"measurement": "Imax, maximum glycine-induced current amplitude", "setting": "α1F207A:β GlyR", "value": "0.8 ± 0.2", "unit": "nA"}, {"measurement": "nh (Hill coefficent)", "setting": "α1F207A:β GlyR; [5]", "value": "1.4 ± 1.5"}, {"measurement": "EC50", "setting": "[4]", "value": "~140", "unit": "µM"}, {"measurement": "Imax, maximum glycine-induced current amplitude", "setting": "α1:βR86TY231A GlyR", "value": "7.1 ± 0.5", "unit": "nA"}, {"measurement": "nh (Hill coefficent)", "setting": "α1:βR86TY231A GlyR; [5]", "value": "2.1 ± 0.3"}, {"measurement": "Imax, maximum glycine-induced current amplitude", "setting": "α1F207A:α1-β-α1 GlyR", "value": "0.5 ± 0.1", "unit": "nA"}, {"measurement": "nh (Hill coefficent)", "setting": "α1F207A:α1-β-α1 GlyR; [5]", "value": "1.8 ± 3.3"}]}]}
